Assay results from article PMC11211886 (Frontiers in Pharmacology, 2024).

Tests used:
OAT3 = molecular target: T1, OAT3 (Homo sapiens, UniProt Q8TCC7); test: OAT3 inhibition, estrone 3-sulfate uptake in transfected HEK293 cells
T1 sequence (Q8TCC7 1-542): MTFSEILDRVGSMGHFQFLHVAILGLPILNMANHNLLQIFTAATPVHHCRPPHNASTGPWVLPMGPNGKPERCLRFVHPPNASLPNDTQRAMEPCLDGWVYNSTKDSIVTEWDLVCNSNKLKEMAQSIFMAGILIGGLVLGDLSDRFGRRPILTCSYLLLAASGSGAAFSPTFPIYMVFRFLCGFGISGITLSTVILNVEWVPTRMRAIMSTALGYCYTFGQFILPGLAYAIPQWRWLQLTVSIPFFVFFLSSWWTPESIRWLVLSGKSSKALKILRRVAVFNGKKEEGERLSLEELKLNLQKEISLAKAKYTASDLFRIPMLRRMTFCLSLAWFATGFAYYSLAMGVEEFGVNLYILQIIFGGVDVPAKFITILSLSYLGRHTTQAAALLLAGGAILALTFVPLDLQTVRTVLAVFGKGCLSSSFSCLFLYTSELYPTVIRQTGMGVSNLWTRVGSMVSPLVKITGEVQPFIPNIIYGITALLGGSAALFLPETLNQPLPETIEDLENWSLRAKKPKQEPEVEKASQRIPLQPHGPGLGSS
Protocol: The pre-incubation solutions were removed, and incubation solutions containing the inhibitors and probe substrates (or transport buffer containing an equal volume of vehicle control and probe substrates) were added and incubated at 37°C for 2 min (5 min for OATP1B3). The probe substrate for OAT1 was 4-aminohippuric acid (10 μM), for OAT3 was estrone 3-sulfate (10 μM), for OCT2 was metformin (100 μM), for OATP1B1 was β-estradiol 17-(β-D-glucuronide) (5 μM), for OATP1B3 was β-estradiol 17-(β-D-glucuronide) (10 μM), and for MATE1 and MATE2-K was tetraethylammonium (10 μM). After incubation, cells were washed three times with ice-cold transport buffer (25 mM HEPES, pH 7.4, pH 8.0 for overexpressing MATE1 and MATE2-K HEK293 cells) and lysed in distilled water. The concentrations of probe substrates were determined by LC-MS/MS, and a BCA Kit (Solarbio ®Life Sciences, Beijing, China) was used to determine the protein content in the cell lysate.
where C is the concentration of the drug in the cell lysate (nM), P is the protein concentration of the cell lysate (mg/mL), and T is the incubation time (minute). Uptake ratetest compound is the uptake rate of the substrate in the presence of the test compound. Uptake ratevehicle control is the uptake rate of the substrate in the presence of the vehicle control. Uptake ratepassive is the uptake rate of the substrate in the presence of the positive inhibitor at the top test concentration.

CYP1A2 = test: CYP induction in human hepatocytes, CYP1A2 enzyme activity
Protocol: […] […] […] Enzyme activity for each CYP isoform was reported as a fold change over vehicle control and the percent of positive control (detailed calculation in Supplementary 1.1). Hepatocytes were harvested with a lysis buffer from RNeasy 96 Kit (Qiagen Inc., Germantown, MD, USA) to isolate RNA, which was analyzed by real-time quantitative polymerase chain reaction (RT-PCR). […] Emax (the maximal observed induction) and EC50 (the concentration that supports half-maximal induction) were estimated by non-linear regression of fold increase in CYP mRNA expression versus concentration plots.
The fold of vehicle control and the percent of positive control were calculated with the formulas below:
Fold of vehicle control = CYPs activity of test compound (or positive control) treated sample / CYPs activity of vehicle control treated sample
% of positive control = [(fold change in treated sample)-1] / [(fold change in positive control)-1] × 100
Based on the enzyme activity, a minimum of 2-fold increase compared to vehicle control for the positive control and ≥40% of the positive control for the test article was considered as the cutoff for a positive signal in in vitro induction assay.

[1] = humans, RP2D 30 mg, phase Ib (n = 90); ref European Society for Medical Oncology, 2021; cited from earlier work

Which IC50 (OAT3) does the source give for `C[C@H](Nc1ncnc(N)c1C#N)c1cc2ncc(Cl)n2nc1-c1ccccc1` [Amdizalisib] here?
Its IC50 is 41.1 µM.

What about the Percentage transported (OAT3; OAT3, compound 0.3 μM) of the same compound?
Its Percentage transported is 96.4%.

What about the Uptake rate (OAT3; OAT3, compound 0.3 μM) of the same compound?
Its Uptake rate is 101±1.22 pmol/mg protein/min.

And the Percentage transported (OAT3; OAT3, compound 1 μM)?
Its Percentage transported is 103%.

What about the Uptake rate (OAT3; OAT3, compound 1 μM) of the same compound?
The Uptake rate was 106±2.62 pmol/mg protein/min.

And the Percentage transported (OAT3; OAT3, compound 3 μM)?
Its Percentage transported is 97.5%.

And the Uptake rate (OAT3; OAT3, compound 3 μM)?
The Uptake rate was 102±3.76 pmol/mg protein/min.

What about the Percentage transported (OAT3; OAT3, compound 10 μM) of the same compound?
Its Percentage transported is 101%.

What about the Uptake rate (OAT3; OAT3, compound 10 μM) of the same compound?
The Uptake rate was 105±1.14 pmol/mg protein/min.

What about the Percentage transported (OAT3; OAT3, compound 30 μM) of the same compound?
The Percentage transported was 52.3%.

And the Uptake rate (OAT3; OAT3, compound 30 μM)?
The Uptake rate was 63.6±3.38 pmol/mg protein/min.

And the Percentage transported (OAT3; OAT3, compound 100 μM)?
The Percentage transported was 27.3%.

And the Uptake rate (OAT3; OAT3, compound 100 μM)?
Its Uptake rate is 42.5±2.15 pmol/mg protein/min.

What about the inhibition at 2 min, 0.3 µM (OAT3; human, pH 7.4) of the same compound?
The inhibition at 2 min, 0.3 µM was 3.57%.

And the inhibition at 2 min, 1 µM (OAT3; human, pH 7.4)?
Its inhibition at 2 min, 1 µM is -2.52%.

And the inhibition at 2 min, 3 µM (OAT3; human, pH 7.4)?
Its inhibition at 2 min, 3 µM is 2.54%.

What about the inhibition at 2 min, 10 µM (OAT3; human, pH 7.4) of the same compound?
Its inhibition at 2 min, 10 µM is -0.883%.

And the inhibition at 2 min, 30 µM (OAT3; human, pH 7.4)?
The inhibition at 2 min, 30 µM was 47.7%.

What about the inhibition at 2 min, 100 µM (OAT3; human, pH 7.4) of the same compound?
The inhibition at 2 min, 100 µM was 72.7%.

What about the “calculated R value (OAT3)” value (OAT3; renal OATs) of the same compound?
Its value is less than 1.1.

And the “Enzyme activity Percent of PC (%)” value (CYP1A2; CYP1A2, donor seven, 1 µM)?
Its value is 1.00%.

What about the “Enzyme activity Percent of PC (%)” value (CYP1A2; CYP1A2, donor seven, 3 µM) of the same compound?
The value was -12.5%.

What about the “Enzyme activity Percent of PC (%)” value (CYP1A2; CYP1A2, donor seven, 10 µM) of the same compound?
Its value is 16.5%.

What about the “Enzyme activity Percent of PC (%)” value (CYP1A2; CYP1A2, donor seven, 20 µM) of the same compound?
Its value is 9.00%.

What about the “Enzyme activity Percent of PC (%)” value (CYP1A2; CYP1A2, donor seven, 30 µM) of the same compound?
The value was 16.6%.

And the “Enzyme activity Percent of PC (%)” value (CYP1A2; CYP1A2, donor six, 1 µM)?
The value was 2.40%.

What about the “Enzyme activity Percent of PC (%)” value (CYP1A2; CYP1A2, donor six, 3 µM) of the same compound?
The value was 3.90%.

What about the “Enzyme activity Percent of PC (%)” value (CYP1A2; CYP1A2, donor six, 10 µM) of the same compound?
The value was 7.60%.

What about the “Enzyme activity Percent of PC (%)” value (CYP1A2; CYP1A2, donor six, 20 µM) of the same compound?
The value was 14.9%.

And the “Enzyme activity Percent of PC (%)” value (CYP1A2; CYP1A2, donor six, 30 µM)?
The value was 7.30%.

And the “Enzyme activity Percent of PC (%)” value (CYP1A2; CYP1A2, donor two, 1 µM)?
Its value is 1.50%.

And the “Enzyme activity Percent of PC (%)” value (CYP1A2; CYP1A2, donor two, 3 µM)?
The value was 0.30%.

And the “Enzyme activity Percent of PC (%)” value (CYP1A2; CYP1A2, donor two, 10 µM)?
Its value is 7.30%.

What about the “Enzyme activity Percent of PC (%)” value (CYP1A2; CYP1A2, donor two, 20 µM) of the same compound?
Its value is 8.90%.

What about the “Enzyme activity Percent of PC (%)” value (CYP1A2; CYP1A2, donor two, 30 µM) of the same compound?
Its value is 14.6%.

And the “induction of CYP1A2 enzyme activity” value (CYP1A2; up to 30.0 µM, all three donors)?
Its value is “not considered an inducer”.

And the “Grade 3 diarrhea” value [1]?
The value was 2.2%.

And the colitis [1]?
Its colitis is “no colitis cases were reported”.

And the “serious GI toxicity” value [1]?
Its value is “less than 5%”.
